PubChem BioAssay (NCI)
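48-hour exposure; five concentrations; linearly interpolated endpoints. GI50: concentration for 50% inhibition of growth. TGI: concentration producing complete growth inhibition.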

Key:
Assay in all cases: DTP human tumour cell line panel, 48 h
SNB-75 CNS = test system: SNB-75 CNS
OVCAR-4 ovarian = test system: OVCAR-4 ovarian
HCC-2998 colon = test system: HCC-2998 colon
IGROV1 ovarian = test system: IGROV1 ovarian
SNB-19 CNS = test system: SNB-19 CNS
A549 NSCLC = test system: A549 NSCLC
SR leukemia = test system: SR leukemia
HCT-116 colon = test system: HCT-116 colon
SNB-78 CNS = test system: SNB-78 CNS
M19-MEL melanoma = test system: M19-MEL melanoma
XF 498 CNS = test system: XF 498 CNS

## CCN1Cc2c(ccc(F)c2C#N)O[C@@H](C)CNC(=O)c2c(N)nn3ccc1nc23
SNB-75 CNS
  GI50: 0.465 µM
  TGI: 3.82 µM
OVCAR-4 ovarian
  GI50: 8.44 µM
  TGI: > 100 µM
HCC-2998 colon
  GI50: 5.57 µM
  TGI: 20.7 µM
IGROV1 ovarian
  GI50: 0.682 µM
  TGI: 13 µM
SNB-19 CNS
  GI50: 8.93 µM
  TGI: 39.3 µM
A549 NSCLC
  GI50: 2.85 µM
  TGI: 24 µM
SR leukemia
  GI50: 0.626 µM
  TGI: > 100 µM
HCT-116 colon
  GI50: 1.25 µM
  TGI: 11.5 µM

## Nc1nc(N)c2c(n1)NC(c1ccc(F)cc1)C1CCc3ccccc3C1=N2 (configuration not stated)
SNB-75 CNS
  GI50: 11.3 µM
  TGI: 23.8 µM
OVCAR-4 ovarian
  GI50: 3.98 µM
  TGI: 18.2 µM
HCC-2998 colon
  GI50: 2.44 µM
  TGI: 6.67 µM
IGROV1 ovarian
  GI50: 7.79 µM
  TGI: 24.1 µM
SNB-19 CNS
  GI50: 12 µM
  TGI: 24.8 µM
A549 NSCLC
  GI50: 10.2 µM
  TGI: 24.3 µM
SR leukemia
  GI50: 1.65 µM
  TGI: 4.14 µM
HCT-116 colon
  GI50: 3.04 µM
  TGI: 11.9 µM

## Cc1[nH]c(=O)n2c(C)nnc2c1C(=O)Nc1cc(Cl)cc(Cl)c1
SNB-75 CNS
  TGI: 88.9 µM
OVCAR-4 ovarian
  TGI: > 100 µM
IGROV1 ovarian
  TGI: 82 µM
SNB-78 CNS
  TGI: 69.6 µM
A549 NSCLC
  TGI: > 100 µM
M19-MEL melanoma
  TGI: 91.9 µM
SR leukemia
  TGI: 66.5 µM
HCT-116 colon
  TGI: > 100 µM

## OC(CNCC1CCCO1)Cn1c2ccc(Cl)cc2c2cc(Cl)ccc21 (configuration not stated)
SNB-75 CNS
  GI50: 1.39 µM
  TGI: 2.87 µM
OVCAR-4 ovarian
  GI50: 1.75 µM
  TGI: 4.32 µM
HCC-2998 colon
  GI50: 1.71 µM
  TGI: 3.15 µM
IGROV1 ovarian
  GI50: 2.05 µM
  TGI: 4.03 µM
SNB-19 CNS
  GI50: 1.88 µM
  TGI: 3.96 µM
A549 NSCLC
  GI50: 1.87 µM
  TGI: 3.69 µM
SR leukemia
  GI50: 2.05 µM
  TGI: 5.5 µM
HCT-116 colon
  GI50: 1.73 µM
  TGI: 3.12 µM

## CCCCCCCCCCC(C(O)c1ccccc1)N1CCCCC1 (configuration not stated)
SNB-75 CNS
  GI50: 2.32 µM
  TGI: 5.65 µM
OVCAR-4 ovarian
  GI50: 3.66 µM
  TGI: 13.2 µM
HCC-2998 colon
  GI50: 1.61 µM
  TGI: 3.07 µM
IGROV1 ovarian
  GI50: 1.5 µM
  TGI: 3.15 µM
SNB-19 CNS
  GI50: 1.84 µM
  TGI: 3.95 µM
A549 NSCLC
  GI50: 4.61 µM
  TGI: 17.1 µM
SR leukemia
  GI50: 2.13 µM
  TGI: 5.34 µM
HCT-116 colon
  GI50: 1.62 µM
  TGI: 3.01 µM

## C[C@]12CCC(=O)C(O)=C1CC[C@@H]1C2CC[C@]2(C)Nc3c(cnn3-c3ccccc3)CC12 (some centres not stated)
SNB-75 CNS
  TGI: > 100 µM
OVCAR-4 ovarian
  TGI: > 100 µM
HCC-2998 colon
  TGI: > 100 µM
IGROV1 ovarian
  TGI: > 100 µM
SNB-78 CNS
  TGI: > 100 µM
A549 NSCLC
  TGI: > 100 µM
M19-MEL melanoma
  TGI: > 100 µM
HCT-116 colon
  TGI: > 100 µM
XF 498 CNS
  TGI: > 100 µM

## Cc1ccc([N+](=O)[O-])cc1NC(=O)c1cccc([N+](=O)[O-])c1O
SNB-75 CNS
  TGI: 43.7 µM
IGROV1 ovarian
  TGI: 98.6 µM
SNB-78 CNS
  TGI: 80.7 µM
SNB-19 CNS
  TGI: > 100 µM
A549 NSCLC
  TGI: > 100 µM
M19-MEL melanoma
  TGI: 56 µM
XF 498 CNS
  TGI: 63.2 µM

## O=C(c1ccccc1)C(Br)C(Br)c1cccc([N+](=O)[O-])c1 (configuration not stated)
SNB-75 CNS
  GI50: 6.48 µM
  TGI: 19.8 µM
OVCAR-4 ovarian
  GI50: 1.49 µM
  TGI: 2.81 µM
HCC-2998 colon
  GI50: 1.57 µM
  TGI: 2.95 µM
IGROV1 ovarian
  GI50: 2.75 µM
  TGI: 7.5 µM
SNB-19 CNS
  GI50: 3.32 µM
  TGI: 12.9 µM
A549 NSCLC
  GI50: 14.3 µM
  TGI: 32.3 µM
SR leukemia
  GI50: 1.2 µM
  TGI: 4.53 µM
HCT-116 colon
  GI50: 0.864 µM
  TGI: 2.08 µM

## COc1cc(/C=C/C(=O)c2c(C)nc3ccccc3c2/C=C/c2ccc(C)cc2)cc(OC)c1OC
SNB-75 CNS
  GI50: 1.47 µM
  TGI: 4.82 µM
OVCAR-4 ovarian
  GI50: 5.62 µM
  TGI: 52.9 µM
HCC-2998 colon
  GI50: 1.73 µM
  TGI: 3.26 µM
IGROV1 ovarian
  GI50: 1.72 µM
  TGI: 3.72 µM
SNB-19 CNS
  GI50: 1.69 µM
  TGI: 3.14 µM
A549 NSCLC
  GI50: 2.94 µM
  TGI: > 100 µM
SR leukemia
  GI50: 2 µM
  TGI: 9.11 µM
HCT-116 colon
  GI50: 1.36 µM
  TGI: 2.82 µM

## O=C1CCCC(=O)N1CCc1c[nH]c2ccccc12
SNB-75 CNS
  TGI: > 100 µM
OVCAR-4 ovarian
  TGI: > 100 µM
HCC-2998 colon
  TGI: > 100 µM
IGROV1 ovarian
  TGI: > 100 µM
SNB-78 CNS
  TGI: > 100 µM
SNB-19 CNS
  TGI: > 100 µM
A549 NSCLC
  TGI: > 100 µM
M19-MEL melanoma
  TGI: > 100 µM
SR leukemia
  TGI: > 100 µM
HCT-116 colon
  TGI: > 100 µM
XF 498 CNS
  TGI: > 100 µM

## COc1cc(C(O)C(=O)c2nc3ccc([N+](=O)[O-])cc3[nH]c2=O)ccc1O (configuration not stated)
OVCAR-4 ovarian
  TGI: > 100 µM
HCC-2998 colon
  TGI: > 100 µM
IGROV1 ovarian
  TGI: > 100 µM
SNB-78 CNS
  TGI: > 100 µM
SNB-19 CNS
  TGI: > 100 µM
A549 NSCLC
  TGI: > 100 µM
M19-MEL melanoma
  TGI: > 100 µM
SR leukemia
  TGI: > 100 µM
HCT-116 colon
  TGI: > 100 µM
XF 498 CNS
  TGI: > 100 µM

## CNC(=O)CC1NC(=O)c2csc(n2)-c2ccc(-c3nc(C4=NC(C(=O)N5CCCC5C(N)=O)CO4)cs3)nc2-c2csc(n2)-c2csc(n2)C(C(C)C)NC(=O)CNC(=O)c2csc(n2)C(C(C)C)NC(=O)c2nc1sc2C (configuration not stated)
SNB-75 CNS
  GI50: > 25 µM
OVCAR-4 ovarian
  GI50: > 25 µM
  TGI: > 25 µM
HCC-2998 colon
  TGI: 2.31 µM
IGROV1 ovarian
  GI50: > 25 µM
SNB-19 CNS
  GI50: > 25 µM
  TGI: > 25 µM
A549 NSCLC
  GI50: > 25 µM
  TGI: > 25 µM
SR leukemia
  GI50: < 0.001 µM
HCT-116 colon
  GI50: > 25 µM
  TGI: > 25 µM

## Cc1cc2[nH]c(=O)c3c4ccccc4cn3c2cc1C
SNB-75 CNS
  GI50: 15.5 µM
  TGI: 30.4 µM
OVCAR-4 ovarian
  GI50: 13.5 µM
  TGI: 27.6 µM
HCC-2998 colon
  GI50: 4.04 µM
  TGI: 16.7 µM
IGROV1 ovarian
  GI50: 12.3 µM
  TGI: 26.6 µM
SNB-19 CNS
  GI50: 16.3 µM
  TGI: 36.7 µM
A549 NSCLC
  GI50: 14.8 µM
  TGI: 37.7 µM
SR leukemia
  GI50: 2.6 µM
  TGI: 5.75 µM
HCT-116 colon
  GI50: 1.58 µM
  TGI: 3.13 µM

## Clc1ccc2nnnn2n1
SNB-75 CNS
  GI50: 4.07 µM
  TGI: > 100 µM
OVCAR-4 ovarian
  GI50: 5.21 µM
  TGI: 17.7 µM
HCC-2998 colon
  GI50: 16.9 µM
  TGI: 40.6 µM
IGROV1 ovarian
  GI50: 4.05 µM
  TGI: 50.1 µM
SNB-19 CNS
  GI50: 31.8 µM
  TGI: > 100 µM
A549 NSCLC
  GI50: 13.9 µM
  TGI: > 100 µM
SR leukemia
  GI50: 1.46 µM
  TGI: 8 µM
HCT-116 colon
  GI50: 2.06 µM
  TGI: 4.46 µM

## Oc1[nH]c2c(Br)cccc2c1C1=Nc2ccccc2/C1=N/OCCN1CCCC1
SNB-75 CNS
  GI50: 1.14 µM
  TGI: 3.64 µM
OVCAR-4 ovarian
  GI50: 1.14 µM
  TGI: 3.35 µM
HCC-2998 colon
  GI50: 1 µM
  TGI: 6.18 µM
IGROV1 ovarian
  GI50: 0.469 µM
  TGI: 2.98 µM
SNB-19 CNS
  GI50: 1.93 µM
A549 NSCLC
  GI50: 1.91 µM
SR leukemia
  GI50: 0.373 µM
  TGI: 1.77 µM
HCT-116 colon
  GI50: 0.448 µM
  TGI: 1.78 µM

## COc1ccc(CC(=O)NCCc2ccc(OC)c(OC)c2)cc1Br
OVCAR-4 ovarian
  TGI: > 100 µM
HCC-2998 colon
  TGI: > 100 µM
IGROV1 ovarian
  TGI: > 100 µM
SNB-19 CNS
  TGI: > 100 µM
A549 NSCLC
  TGI: > 100 µM
SR leukemia
  TGI: > 100 µM
XF 498 CNS
  TGI: > 100 µM

## CC(C)COCC(CN(Cc1ccccc1)c1ccccc1)N1CCCC1 (configuration not stated)
SNB-75 CNS
  GI50: 3.47 µM
  TGI: 17.6 µM
OVCAR-4 ovarian
  GI50: 2.04 µM
  TGI: 11 µM
HCC-2998 colon
  GI50: 2.25 µM
  TGI: 6.16 µM
IGROV1 ovarian
  GI50: 3.18 µM
  TGI: 15 µM
SNB-19 CNS
  GI50: 3.07 µM
  TGI: 12.2 µM
A549 NSCLC
  GI50: 3.48 µM
  TGI: 13.5 µM
SR leukemia
  GI50: 2.08 µM
  TGI: 5.34 µM
HCT-116 colon
  GI50: 2.52 µM
  TGI: 10.4 µM
